Assay results reported in patent US20240058343A1, “TREATMENT OF URTICARIA USING JAK INHIBITORS” (Incyte Corporation, priority 2022, published 2024).

Columns and labels:
[1] = biological target: human JAK1 (a.a. 837-1142) (Homo sapiens, UniProt P23458); experiment: In vitro JAK kinase assay (HTRF), JAK1; format: biochemical; conditions: 1 mM ATP
Protocol: (§1) The catalytic activity of JAK1, JAK2 or JAK3 was assayed by measuring the phosphorylation of a biotinylated peptide. The phosphorylated peptide was detected by homogenous time resolved fluorescence (HTRF). IC5os of compounds are measured for each kinase in the 40 microL reactions that contain the enzyme, ATP and 500 nM peptide in 50 mM Tris (pH 7.8) buffer with 100 mM NaCl, 5 mM DTT, and 0.1 mg/mL (0.01%) BSA. […] Reactions are carried out at room temperature for 1 hour and then stopped with 20 μL 45 mM EDTA, 300 nM SA-APC, 6 nM Eu-Py20 in assay buffer (Perkin Elmer, Boston, MA). Binding to the Europium labeled antibody takes place for 40 minutes and HTRF signal was measured on a Fusion plate reader (Perkin Elmer, Boston, MA).

JAK2 (a.a. 828-1132) = JAK2 (a.a. 828-1132) (Homo sapiens (Human), UniProt O60674); experiment: In vitro JAK kinase assay (HTRF), JAK2, for JAK2/JAK1 ratio; format: biochemical; conditions: IC50 ratio at 1 mM ATP
Chain of JAK2 (a.a. 828-1132) (O60674 828-1132): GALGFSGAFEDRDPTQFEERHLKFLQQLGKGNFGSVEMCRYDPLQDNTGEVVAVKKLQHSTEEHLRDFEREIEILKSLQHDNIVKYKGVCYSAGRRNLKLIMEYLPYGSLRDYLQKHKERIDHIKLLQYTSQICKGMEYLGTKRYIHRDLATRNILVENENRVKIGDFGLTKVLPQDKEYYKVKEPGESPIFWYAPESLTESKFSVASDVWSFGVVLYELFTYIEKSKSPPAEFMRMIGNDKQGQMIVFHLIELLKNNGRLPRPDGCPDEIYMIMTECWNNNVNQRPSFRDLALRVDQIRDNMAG
Protocol: as §1

CSU skin = experiment: Ex vivo culture of CSU lesional skin biopsies, RNA-seq gene expression; format: cell-based, human
Protocol: Full-thickness cutaneous skin biopsies were obtained from active disease, untreated, urticaria patients. A single 4mm-punch biopsy was obtained from the same lesion for each patient and longitudinally divided into two pieces. Biopsies were cultured for 24 hours in KBM media+CaCl2, with or without compound (i.e., Compound 1) or DMSO (control). After 24 hours, tissue RNA was isolated for subsequent analysis. RNA extracts were quantified with the Qubit fluorometer (Invitrogen) and quality assessed by TapeStation automated electrophoresis (Agilent Technologies). Total RNA (250 ng) treated with amplification-grade DNase I (Invitrogen) were enriched for non-ribosomal RNA using the NEBNext rRNA Depletion Kit v2 (New England BioLabs). Library preparation was performed with the NEBNext Ultra II Directional RNA Library Prep Kit for Illumina (New England BioLabs) following the manufactures protocol for library preparation of intact or partially degraded RNA (section 2). For comparability, the same protocol was used for all samples. RNA-seq libraries were pooled and paired-end sequencing was performed on the NextSeq 2000 (Illumina) with an average sequencing depth of 200 M reads. FASTQ files were processed with Nextflow RNASeq pipeline (v. 22.10.1). […] The effects of JAK1 inhibition with Compound 1 on DEGs identified in the prior analysis were further evaluated. […]

IC50 [1]: < 10 nM
JAK2/JAK1 (JAK2 (a.a. 828-1132)): >10
Compound: N#CCC1(n2cc(-c3ncnc4[nH]ccc34)cn2)CN(C2CCN(C(=O)c3ccnc(C(F)(F)F)c3F)CC2)C1 [compound 1, {1-{1-[3-Fluoro-2-(trifluoromethyl)isonico-tinoyl]piperidin-4-yl}-3-[4-(7H-pyrrolo[2,3-d]pyrimidin-4-yl)-1H-pyrazol-1-yl]azetidin-3-yl}acetonitrile]
PTX3 expression (CSU skin; CSU skin, 24 hour ex vivo treatment, FIG. 1): dramatically reduced
CCL2, S100A8, SELE and PTX3 expression (CSU skin; cultured CSU skin, 24 hours, vs DMSO control): altered expression
